According to patent publication US20110152183A1, “DERIVATISED HYBRID PEPTIDES OF AMYLIN AND SALMON CALCITONIN” (Novo Nordisk A/S, priority 2008, published 2011):
Peptide text beside a SMILES is read from it.

Target: T1, Amylin 3(a) receptor (human calcitonin receptor (CTa) + RAMP-3) (Homo sapiens, UniProt O60896+P30988)
T1 construct: expressed in transfected cells; host or cells: BHK570 (baby hamster kidney) cells, stably transfected, with a CRE-luciferase reporter
Assay: Amylin luciferase assay (II), CRE luciferase reporter in BHK cells
Format: cell-based
Settings: BHK Amylin 3(a)//CRE-luc cells, 4 hours incubation
Text: It has previously been published (Poyner D R et al 2002, Pharmacological Reviews 54 (2) 233-246) that activation of Amylin receptors (coexpression of Calcitonin receptor and receptor activity modifying peptides RAMPs) by Amylin leads to an increase in the intracellular concentration of cAMP. Consequently, transcription is activated at promotors containing multiple copies of the cAMP response element (CRE). It is thus possible to measure Amylin activity by use of a CRE luciferase reporter gene introduced into BHK cells also expressing an Amylin receptor.
2. Construction of An Amylin 3(a)/CRE-Luc Cell Line
A BHK570 cell line stably transfected with the human calcitonin receptor (CTa) and a CRE-responsive luciferase reportergene. The cell line was further transfected with RAMP-3, using standard methods. This turns the Calcitonin receptor into an Amylin 3(a) receptor. Methotrexate, Neomycin, and Hygromycin are selection markers for luciferase, the Calcitonin receptor, and RAMP-3, respectively.
3. Amylin Luciferase Assay
To perform activity assays, BHK Amylin 3(a)//CRE-luc cells were seeded in white 96 well culture plates at a density of about 20.000 cells/well. […] Finally, luminescence was measured on a TopCounter (Packard) in SPC (single photon counting) mode.

T1 sequence (O60896 24-148): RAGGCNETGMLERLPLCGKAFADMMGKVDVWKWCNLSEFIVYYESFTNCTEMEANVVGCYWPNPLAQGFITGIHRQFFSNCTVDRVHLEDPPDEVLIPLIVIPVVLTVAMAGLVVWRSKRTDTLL
T1 sequence (P30988 25-474): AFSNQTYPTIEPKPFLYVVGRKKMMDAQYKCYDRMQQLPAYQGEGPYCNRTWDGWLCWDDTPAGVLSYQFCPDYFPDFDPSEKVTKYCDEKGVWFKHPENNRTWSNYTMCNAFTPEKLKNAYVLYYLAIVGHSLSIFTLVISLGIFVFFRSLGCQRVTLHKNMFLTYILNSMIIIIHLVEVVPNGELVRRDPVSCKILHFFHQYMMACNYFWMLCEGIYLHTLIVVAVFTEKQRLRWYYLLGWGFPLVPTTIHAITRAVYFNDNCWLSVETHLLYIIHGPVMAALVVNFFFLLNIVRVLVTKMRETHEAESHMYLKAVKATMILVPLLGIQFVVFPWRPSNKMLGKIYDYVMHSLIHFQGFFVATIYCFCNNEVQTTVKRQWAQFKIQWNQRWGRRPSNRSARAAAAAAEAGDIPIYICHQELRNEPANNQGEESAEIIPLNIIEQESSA

EC50: 3 pM
Compound: CC(C)C[C@H](NC(=O)[C@H](C)NC(=O)[C@@H]1CSSC[C@H](NC(=O)[C@@H](N)CCCCN)C(=O)N[C@@H](CC(N)=O)C(=O)N[C@@H]([C@@H](C)O)C(=O)N[C@@H](C)C(=O)N[C@@H]([C@@H](C)O)C(=O)N1)C(=O)NCC(=O)N[C@@H](CCCNC(=N)N)C(=O)N[C@@H](CC(C)C)C(=O)N[C@@H](CO)C(=O)N[C@@H](CCC(N)=O)C(=O)N[C@@H](CCC(=O)O)C(=O)N[C@@H](CC(C)C)C(=O)N[C@@H](Cc1c[nH]cn1)C(=O)N[C@@H](CCCNC(=N)N)C(=O)N[C@@H](CC(C)C)C(=O)N[C@@H](CCC(N)=O)C(=O)N[C@H](C(=O)N[C@@H](Cc1ccc(O)cc1)C(=O)N1CCC[C@H]1C(=O)N[C@@H](CCCNC(=N)N)C(=O)N[C@H](C(=O)N[C@@H](CC(N)=O)C(=O)N[C@H](C(=O)NCC(=O)N[C@@H](CO)C(=O)N[C@@H](CC(N)=O)C(=O)N[C@H](C(=O)N[C@@H](Cc1ccc(O)cc1)C(N)=O)[C@@H](C)O)[C@@H](C)O)[C@@H](C)O)[C@@H](C)O [Example 4, Amylin (1-8)-[Arg11,Arg18]sCT (9-27)-amylin (33-37)] (HELM PEPTIDE1{K.C.N.T.A.T.C.A.L.G.R.L.S.Q.E.L.H.R.L.Q.T.Y.P.R.T.N.T.G.S.N.T.Y.[am]}$PEPTIDE1,PEPTIDE1,2:R3-7:R3$$$V2.0; N-terminus assumed)
